Experimental data: PMC11663113 (Cell chemical biology, 2024)

Columns and labels:
[1] = test system: A549 human non-small cell lung carcinoma (NSCLC) cells; format: cell-based; conditions: three days, same conditions as compound 11
human DNMT1 = human DNMT1 (Homo sapiens, UniProt P26358); assay: biochemical
CamA = format: biochemical
CcrM = CcrM (Caulobacter vibrioides, UniProt P0CAW2); format: biochemical
Dam = Dam (Escherichia coli, UniProt P0AEE8); format: biochemical
MBD4 = biological target: T1, MBD4 (Mus musculus, UniProt Q9Z2D7); format: biochemical; conditions: inhibitor 2 μM
T1 sequence (Q9Z2D7 411-554 limits assumed): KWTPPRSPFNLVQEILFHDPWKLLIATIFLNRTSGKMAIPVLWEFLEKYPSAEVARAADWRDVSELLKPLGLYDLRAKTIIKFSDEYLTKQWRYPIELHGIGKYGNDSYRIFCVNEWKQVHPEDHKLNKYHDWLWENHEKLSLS

TDG = TDG (Homo sapiens, UniProt Q13569); format: biochemical
Sequence of TDG (Q13569 whole entry): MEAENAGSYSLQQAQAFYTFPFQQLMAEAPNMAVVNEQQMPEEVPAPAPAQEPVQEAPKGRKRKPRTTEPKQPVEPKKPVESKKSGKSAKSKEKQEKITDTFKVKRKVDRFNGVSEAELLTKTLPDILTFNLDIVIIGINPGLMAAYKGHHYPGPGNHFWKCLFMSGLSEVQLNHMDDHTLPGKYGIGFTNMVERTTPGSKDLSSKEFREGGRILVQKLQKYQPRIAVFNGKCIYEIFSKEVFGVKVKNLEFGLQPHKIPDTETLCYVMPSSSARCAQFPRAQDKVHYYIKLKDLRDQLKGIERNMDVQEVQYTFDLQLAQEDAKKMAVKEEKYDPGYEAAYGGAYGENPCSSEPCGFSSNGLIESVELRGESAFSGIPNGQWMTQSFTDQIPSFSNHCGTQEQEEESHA

MYH = biological target: T2, MYH (Mus musculus, UniProt Q99P21); format: biochemical; conditions: inhibitor 2 μM
T2 sequence (Q99P21 1-515): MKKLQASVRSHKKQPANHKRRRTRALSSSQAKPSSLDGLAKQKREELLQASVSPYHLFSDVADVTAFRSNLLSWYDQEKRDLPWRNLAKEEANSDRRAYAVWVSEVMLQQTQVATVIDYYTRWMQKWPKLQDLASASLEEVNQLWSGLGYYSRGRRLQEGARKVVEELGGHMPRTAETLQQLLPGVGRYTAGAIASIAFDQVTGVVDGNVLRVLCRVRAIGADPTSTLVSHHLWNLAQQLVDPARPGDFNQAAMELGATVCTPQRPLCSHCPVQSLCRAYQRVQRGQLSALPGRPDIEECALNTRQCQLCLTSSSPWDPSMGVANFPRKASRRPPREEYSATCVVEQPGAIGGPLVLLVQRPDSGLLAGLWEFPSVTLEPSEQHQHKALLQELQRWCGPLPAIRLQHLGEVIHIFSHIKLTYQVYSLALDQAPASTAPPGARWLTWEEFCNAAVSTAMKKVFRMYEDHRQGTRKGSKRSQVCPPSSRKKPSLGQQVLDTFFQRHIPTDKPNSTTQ

Pol η = biological target: T3, Pol η (Homo sapiens, UniProt Q9Y253); assay: Pol η nucleotide incorporation assay; format: biochemical
T3 sequence (Q9Y253 1-432 limits assumed): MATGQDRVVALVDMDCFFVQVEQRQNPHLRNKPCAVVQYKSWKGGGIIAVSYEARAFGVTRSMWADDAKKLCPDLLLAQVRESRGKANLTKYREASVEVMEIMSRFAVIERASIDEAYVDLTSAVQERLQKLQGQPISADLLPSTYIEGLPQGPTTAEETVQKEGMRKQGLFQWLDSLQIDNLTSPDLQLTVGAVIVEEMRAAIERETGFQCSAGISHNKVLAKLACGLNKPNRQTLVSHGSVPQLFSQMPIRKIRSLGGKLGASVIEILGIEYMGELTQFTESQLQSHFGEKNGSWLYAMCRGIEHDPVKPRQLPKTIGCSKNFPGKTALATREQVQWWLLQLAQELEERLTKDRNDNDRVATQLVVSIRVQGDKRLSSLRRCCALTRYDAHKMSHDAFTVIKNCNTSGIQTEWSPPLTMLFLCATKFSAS

Pol θ = format: biochemical, Human; conditions: 50 μM
DNMT3A2–3L complex = DNMT3A2–3L complex (Homo sapiens, UniProt Q9Y6K1); format: biochemical; conditions: [E]/[DNA] 1:2 versus 1:10, 10 μM

Sequence of human DNMT1 (P26358 350-1600): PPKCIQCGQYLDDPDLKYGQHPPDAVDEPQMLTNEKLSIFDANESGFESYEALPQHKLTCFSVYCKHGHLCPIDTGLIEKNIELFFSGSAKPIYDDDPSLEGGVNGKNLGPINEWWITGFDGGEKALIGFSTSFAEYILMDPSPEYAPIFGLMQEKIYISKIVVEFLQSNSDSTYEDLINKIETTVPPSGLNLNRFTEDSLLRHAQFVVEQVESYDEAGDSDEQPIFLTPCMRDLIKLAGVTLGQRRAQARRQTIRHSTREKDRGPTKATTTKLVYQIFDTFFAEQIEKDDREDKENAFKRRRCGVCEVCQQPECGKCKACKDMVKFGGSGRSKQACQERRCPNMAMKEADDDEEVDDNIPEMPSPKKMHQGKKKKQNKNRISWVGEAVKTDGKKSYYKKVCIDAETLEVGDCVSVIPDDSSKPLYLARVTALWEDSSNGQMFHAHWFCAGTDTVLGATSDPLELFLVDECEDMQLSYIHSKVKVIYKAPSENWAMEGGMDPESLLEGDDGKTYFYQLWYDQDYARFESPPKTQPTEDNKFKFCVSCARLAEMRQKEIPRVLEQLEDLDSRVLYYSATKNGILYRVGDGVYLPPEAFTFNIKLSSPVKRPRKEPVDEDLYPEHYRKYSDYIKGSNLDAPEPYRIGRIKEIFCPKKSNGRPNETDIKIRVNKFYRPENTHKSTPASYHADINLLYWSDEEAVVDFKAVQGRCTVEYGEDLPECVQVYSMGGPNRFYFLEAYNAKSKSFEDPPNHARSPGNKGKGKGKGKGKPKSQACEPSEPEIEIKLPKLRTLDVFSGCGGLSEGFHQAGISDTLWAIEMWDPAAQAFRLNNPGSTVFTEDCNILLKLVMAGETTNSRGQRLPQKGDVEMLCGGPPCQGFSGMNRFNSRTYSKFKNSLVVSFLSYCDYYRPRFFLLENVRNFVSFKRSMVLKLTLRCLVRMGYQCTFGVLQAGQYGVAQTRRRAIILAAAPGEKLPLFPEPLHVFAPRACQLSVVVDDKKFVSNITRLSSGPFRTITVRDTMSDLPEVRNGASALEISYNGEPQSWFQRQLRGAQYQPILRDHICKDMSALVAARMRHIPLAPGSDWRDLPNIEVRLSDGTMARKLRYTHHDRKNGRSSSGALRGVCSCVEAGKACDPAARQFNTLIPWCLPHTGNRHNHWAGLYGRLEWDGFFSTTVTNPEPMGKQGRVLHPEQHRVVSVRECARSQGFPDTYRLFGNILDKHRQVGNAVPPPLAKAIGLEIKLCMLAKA
Sequence of CcrM (P0CAW2 whole entry): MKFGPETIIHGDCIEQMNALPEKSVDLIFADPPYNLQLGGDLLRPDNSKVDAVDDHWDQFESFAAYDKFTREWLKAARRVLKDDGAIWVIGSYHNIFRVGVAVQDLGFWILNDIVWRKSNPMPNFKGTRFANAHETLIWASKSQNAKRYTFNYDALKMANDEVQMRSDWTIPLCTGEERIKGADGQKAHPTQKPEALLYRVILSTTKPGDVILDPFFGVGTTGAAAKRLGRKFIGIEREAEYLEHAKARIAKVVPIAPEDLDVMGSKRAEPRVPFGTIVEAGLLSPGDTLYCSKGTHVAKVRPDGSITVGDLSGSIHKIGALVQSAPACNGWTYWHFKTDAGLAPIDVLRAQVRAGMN
Sequence of Dam (P0AEE8 whole entry): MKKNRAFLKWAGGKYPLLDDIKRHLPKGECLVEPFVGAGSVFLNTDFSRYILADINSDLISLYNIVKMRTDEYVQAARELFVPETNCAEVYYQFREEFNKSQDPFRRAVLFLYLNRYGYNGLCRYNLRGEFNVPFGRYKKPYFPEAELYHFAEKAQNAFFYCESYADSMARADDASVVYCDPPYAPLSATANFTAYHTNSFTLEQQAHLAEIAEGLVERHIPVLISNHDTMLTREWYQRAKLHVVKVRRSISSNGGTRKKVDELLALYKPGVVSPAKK

`CCc1c(C#N)c(SC(C(N)=O)c2ccccc2)nc(N(C)C)c1C#N` (centres unmarked) [GSK3484862] was tested. Which “A549 cell viability / toxicity (in words)” value [1] did it give?
The value was “viabilities similar to control cells”.

`Cc1cc(Nc2ccc(NC(=O)c3ccc(Nc4ccnc5ccccc45)cc3)cc2)nc(N)n1` [Compound 1] was tested. Which “inhibition of DNMT1” value (human DNMT1; 10 μM compound, [E]/[DNA]=1:10) did it give?
Its value is ~ 70%.

What about the “inhibition of CamA” value (CamA; 10 μM) of the same compound?
The value was “less than 50%”.

And the “inhibition of CcrM (in words)” value (CcrM)?
The value was “no inhibitory effect at all”.

What about the “inhibition of Dam (in words)” value (Dam) of the same compound?
The value was “no inhibitory effect at all”.

What about the “inhibition of MBD4 activity on T:G mismatch” value (MBD4) of the same compound?
Its value is “do not exhibit effective inhibition”.

And the “inhibition of MBD4 activity on U:G mismatch” value (MBD4)?
The value was “do not exhibit effective inhibition”.

And the “inhibition of TDG activity on T:G mismatch” value (TDG)?
Its value is “do not exhibit effective inhibition”.

What about the “inhibition of MYH excision of adenine opposite 8-oxoG” value (MYH) of the same compound?
The value was “do not exhibit effective inhibition”.

And the “inhibition of Pol η activity” value (Pol η; 10 μM compound)?
The value was “more than 50%”.

What about the “inhibition of Pol θ activity” value (Pol θ) of the same compound?
Its value is ~ 50%.

How did the IC50 (CamA; read-out: IC50 against CamA) turn out when `OC[C@H]1O[C@@H](n2cnc3c(NCCCc4ccccc4)ncnc32)[C@H](O)[C@@H]1O` [MC4741, (2R,3S,4R,5R)-2-(Hydroxymethyl)-5-(6-((3-phenylpropyl)-amino)-9H-purin-9-yl)tetrahydrofuran-3,4-diol] was run?
The IC50 was 700 nM.

For `Nc1ncnc2c1ncn2[C@@H]1O[C@H](C[C@@H](N)CC[C@H](N)C(=O)O)[C@@H](O)[C@H]1O` [sinefungin], which inhibition at 10 µM (human DNMT1; read-out: inhibition of DNMT1) is on record?
Its inhibition at 10 µM is roughly 50%.

What about the “change of DNMT3A2–3L inhibition as a function of DNA substrate concentration” value (DNMT3A2–3L complex) of the same compound?
Its value is “did not change”.

And the “inhibition of CamA (in words)” value (CamA)?
Its value is “limited inhibition”.

What about the “inhibition of CcrM (in words)” value (CcrM) of the same compound?
Its value is “significant inhibition”.

And the “impact on Pol η polymerase activity (in words)” value (Pol η; 10 μM)?
Its value is “no impact on polymerase activity”.
